# Experimental data from patent US20110275103A1, “EMISSION RATIOMETRIC REPORTERS OF MEMBRANE PDK1 ACTIVATION” (THE JOHNS HOPKINS UNIVERSITY, priority 2010, published 2011).
# Entries after “also recorded” stand apart in the source; their conditions may differ.
# Columns and labels:
# Assay type in all cases: cell-based
# Akt [1] = assay: FRET-based Akt activity reporter (AktAR) imaging in NIH 3T3 cells; conditions: pre-incubation with 50 μM C2-ceramide for 60 min
# Protocol: (§1) Cells were plated on sterilized glass coverslips in 35 mm dishes and were grown to 40% confluency in medium at 37° C. with 5% CO2, then transfected with Lipofectamine 2000. In the case of NIH 3T3 and HeLa cells, the cells were serum-starved for 24 h. For imaging, cells were washed with Hanks' balanced salt solution (HBSS) and imaged in the dark at room temperature. Images were acquired on a Zeiss Axiovert 200M microscope with a cooled charge-coupled device camera, as previously described (8). Dual-emission ratio imaging was performed with a 420DF20 excitation filter, a 450DRLP dichroic mirror, and two emission filters. For CFP and YFP, 475DF40 and 535DF25, respectively, were used. Exposure times were 50-500 ms. Images were taken every 30 s. Imaging data were analyzed with Metafluor 6.2 software (Universal Imaging, Downingtown, Pa.). Fluorescence images were background-corrected by deducting the background (regions with no cells) from the emission intensities of CFP or YFP. Traces were normalized by taking the emission ratio before addition of drugs as 1.
# PDK1 [2] = assay: FRET emission ratio imaging of PDK1 activation reporters (PARE, Lyn-PARE, PARE-Kras) in NIH 3T3 cells; conditions: for emission ratio change of the non-raft-targeted reporter (PARE-Kras) / emission ratio change of the untargeted reporter (PARE) / response of the Lyn-PARE R472/474A mutant reporter / increase in the yellow-to-cyan emission ratio of the raft-targeted PDK1 activity reporter (Lyn-PARE): serum-starved NIH 3T3 cells
# Description: (§2) PARE was generated by sandwiching full-length PDK1 between a FRET pair, ECFP and Citrine. Lyn-PARE and PARE-Kras were generated by the addition of the N-terminal portion of the Lyn kinase gene (GCIKSKRKDKD; SEQ ID NO:6) at the 5′ end and a C(A)2X tag (C is cysteine, A is an aliphatic amino acid, and X is any amino acid) at the 3′ end (KKKKKSKTKCVIM; SEQ ID NO:7) of PARE, respectively. Lyn-PARE R472/474A was generated by site-directed mutagenesis. PTEN A4 (fused with a C-terminal fluorescent protein) was targeted to raft and non-raft regions of plasma membrane with the same set of targeting motifs. All of the constructs were generated in a modified version of the mammalian expression vector pcDNA 3.
# as §1
# Akt [3] = assay: FRET-based Akt activity reporter (AktAR) imaging in 3T3 L1 preadipocytes; conditions: pre-incubation with 50 μM C2-ceramide
# Protocol: as §1
# Akt [4] = assay: Membrane translocation of YFP-tagged Akt PH domain in NIH 3T3 cells
# Protocol: as §1
# PTEN = assay: Sucrose density gradient fractionation of crude plasma membranes and anti-PTEN Western blot, 3T3-L1 adipocytes
# Protocol: Cells were washed with ice-cold PBS and then lysed in RIPA lysis buffer containing protease inhibitor cocktail (Roche), 1 mM PMSF, 1 mM NaVO4, 1 mM NaF and 25 nM calyculin A. Total cell lysates were incubated on ice for 30 min, then centrifuged at 4° C. for 20 min. Total protein was separated with 7.5% SDS-PAGE and transferred to nitrocellulose membranes. The membranes were blocked with TBS containing 0.05% Tween-20 and 1% bovine serum albumin, then incubated with primary antibodies overnight at 4° C. After incubation with the appropriate horseradish peroxidase-conjugated secondary antibodies, the bands were visualized by enhanced chemiluminescence. The intensity of the bands was quantified with ImageJ software.
# Cells were rinsed twice with ice-cold PBS and harvested into 10 mM Tris (pH 7.4) with 150 mM NaCl, 5 mM EDTA, 2 mM PMSF, 2 mM NaVO4, 2 mM NaF, and 50 nM calyculin A, with protease inhibitor cocktail. The cells then were subjected to mechanical disruption with 15 strokes of a homogenizer. Homogenates were centrifuged at 2,300×g for 5 min at 4° C., and the supernatant was centrifuged at 18,000×g for 50 min at 4° C. (32). The resulting membrane pellets were resuspended in 10 mM Tris (pH 7.4) with 150 mM NaCl, 5 mM EDTA, 2 mM PMSF, 2 mM NaVO4, 2 mM NaF and 50 nM calyculinA A, with protease inhibitor cocktail and 1% Triton X-100, for sucrose density gradient fractionation. […]
# Akt [5] = assay: Membrane translocation of Akt PH domain in 3T3 L1 preadipocytes; conditions: pre-incubation with 50 μM C2-ceramide
# Protocol: as §1
# 3T3 L1 adipocytes = assay: Glucose uptake assay ([14C]2-deoxyglucose) in 3T3 L1 adipocytes; conditions: pre-incubation with 50 μM C2-ceramide for 60 min, 100 nM insulin, n=3
# Protocol: 3T3-L1 preadipocytes were grown to confluency in 10% calf serum/DMEM and stimulated with induction media (DMEM containing 10% fetal bovine serum, 1 μg/ml insulin, 1 μM dexamethasone, and 0.5 mM 3-isobutyl-1-methylxanthine) at 2 days post-confluency.
# The medium was changed to insulin medium (1 μg/ml) 2 days after induction. Two days later, the medium was replaced with 10% fetal bovine serum/DMEM and then changed every 2 days. Full differentiation was achieved by 8 days after induction.
# Adipocytes were incubated in Krebs-Ringer bicarbonate buffer supplemented with 30 mM HEPES, pH 7.4, with 0.5% BSA (KRBH/BSA) and 2.5 mM glucose for 3 h. The cells were washed once with PBS and incubated in BSA/KRH (25 mM HEPES-NaOH, pH 7.4, with 120 mM NaCl, 5 mM KCl, 1.2 mM MgSO4, 1.3 mM CaCl2, and 1.3 mM KH2PO4) without glucose for 15 min. The cells were then incubated with 100 nM insulin for 15 min. The assay was initiated by the addition of ^[14C]2-deoxyglucose (0.4 μCi/sample) and 5 mM glucose and terminated after 15 min by washing the cells three times with ice-cold PBS. Cells were solubilized in 1% Triton-100, and cell-associated radioactivity was determined by scintillation counting.
# PDK1 [6] = assay: FRET emission ratio imaging of Lyn-PARE in 3T3 L1 preadipocytes; conditions: pre-incubation with 50 μM C2-ceramide
# Description: as §2
# Cells were plated on sterilized glass coverslips in 35 mm dishes and were grown to 40% confluency in medium at 37° C. with 5% CO2, then transfected with Lipofectamine 2000. In the case of NIH 3T3 and HeLa cells, the cells were serum-starved for 24 h. For imaging, cells were washed with Hanks' balanced salt solution (HBSS) and imaged in the dark at room temperature. […] Imaging data were analyzed with Metafluor 6.2 software (Universal Imaging, Downingtown, Pa.). Fluorescence images were background-corrected by deducting the background (regions with no cells) from the emission intensities of CFP or YFP. […]
# PDK1 [7] = assay: FRET emission ratio imaging of PDK1 activation reporters in HeLa cells; conditions: serum-starved HeLa cells; 100 ng/ml EGF
# Description: as §2, §1
# [8] = NIH 3T3 cells, pre-incubation with 50 μM C2-ceramide for 60 min
molecule,measurement,setting,value
CCCCCCCCCCCCC/C=C/[C@@H](O)[C@H](CO)NC(C)=O [C2-ceramide],effect on response of AktAR,Akt [1],abolished
same,effect on response of Lyn-PARE,PDK1 [2]; [8],abolished
same,effect on response of AktAR,Akt [3],abolished
same,effect on membrane translocation of Akt PH domain,Akt [4]; [8],abolished
same,increase in the amount of PTEN found in raft fractions,"PTEN; pre-incubation with 50 μM C2-ceramide, n=3",8.8±2.1 fold
same,level of PTEN in non-raft regions of adipocyte membranes,PTEN; pre-incubation with C2-ceramide,without changing the level of PTEN
same,effect on membrane translocation of Akt PH domain,Akt [5],abolished
same,effect on insulin-induced glucose uptake,3T3 L1 adipocytes,blocked insulin-induced glucose uptake; also recorded: inhibited insulin-induced glucose uptake
same,effect on response of Lyn-PARE,PDK1 [6],abolished
OO [H2O2],effect on Lyn-PARE response to PDGF suppressed by targeted PTEN A4,"PDK1 [2]; NIH 3T3 cells, 50 mM H2O2",restored
same,effect on Akt PH membrane translocation suppressed by Lyn-PTEN A4,Akt [4]; 50 mM H2O2,restored the membrane translocation
same,effect on inhibition of Akt-PH translocation by non-raft-targeted PTEN A4 (PTEN A4-Kras),Akt [4]; H2O2 treatment,reversed
"EGF: epidermal growth factor, purchased from Sigma-Aldrich (NSDSECPLSHDGYCLHDGVCMYIEALDKYACNCVVGYIGERCQYRDLKWWELR; UniProt P01133 971-1023, looked up)",emission ratio change of the non-raft-targeted reporter (PARE-Kras),PDK1 [7],but not PARE (n=4) or PARE-Kras
same,emission ratio change of the raft-targeted reporter (Lyn-PARE),PDK1 [7],induced an emission ratio increase
same,emission ratio change of the untargeted reporter (PARE),PDK1 [7],but not PARE
PDGF,emission ratio change of the non-raft-targeted reporter (PARE-Kras),PDK1 [2]; 50 ng/ml PDGF,no emission ratio change
same,emission ratio change of the untargeted reporter (PARE),PDK1 [2]; 50 ng/ml PDGF,no emission ratio change
same,response of the Lyn-PARE R472/474A mutant reporter,PDK1 [2]; 50 ng/ml PDGF,lack of response
same,increase in the yellow-to-cyan emission ratio of the raft-targeted PDK1 activity reporter (Lyn-PARE),"PDK1 [2]; 50 ng/ml PDGF, n=7",19±4%
pervanadate [PV],emission ratio change of the non-raft-targeted reporter (PARE-Kras),PDK1 [2]; 100 μM PV,Only the raft-targeted PDK1 activity reporter showed an increase
same,emission ratio change of the untargeted reporter (PARE),PDK1 [2]; 100 μM PV,no emission ratio change
same,increase in the yellow-to-cyan emission ratio of the raft-targeted PDK1 activity reporter (Lyn-PARE),"PDK1 [2]; 100 μM PV, n=5",20.7±3.3%
same,response of the Lyn-PARE R472/474A mutant reporter,PDK1 [2]; PV,lack of response
